The values that follow come from patent publication US5364777A, “Method of improving lipase activity using noble gases” (American Air Liquide, priority 1992, dated 1994).

Experiment [1] concerns triacylglycerol lipase EC 3.1.1.3. In words: Lipase L-1754 hydrolysis of p-nitrophenyl caprate, butyrate, caproate under gaseous atmospheres (400 nm). The settings on record: for Maximum inhibition of lipase activity, PNP-Butyrate: substrate PNP-Butyrate, 10° C.; for Maximum enhancement of lipase activity, PNP-Caproate: substrate PNP-Caproate. The experiment is classed as biochemical, Candida cylindracea. The procedure:
FIGS. 4-6 show a typical and similar enzyme assay carried out on the same enzyme using PNP-butyrate showing inhibition of activity at 10° C. 25° C. and 35° C., respectively. Significant depression in rate is noted.
(§1) Lipase catalysis of lipid conversion was tested using triglycerides, paranitrophenyl (PNP) acetate, PNP-butyrate, PNP-caprate, PNP-caprylate, PNP-caproate, olive oil, standard lipids and triglycerides, and other lipids. […]
(§2) Testing Of An Adequate Procedure
(§3) To Follow Lipase L-1754/p-Nitrophenyl
caprate N-0252, p-Nitrophenyl butyrate N-9876, p-Nitrophenyl
caproate N-0502, p-Nitrophenyl caprylate N-0752
PURPOSE: Testing protocol to follow Lipase L-17,54 using p-
ENZYME: Lipase (Sigma No. L-1754)
Type VII from Candida cylindracea w/ 30% lactose
p-Nitrophenyl caprate (Sigma No. N-02521)
p-Nitrophenyl butyrate (Sigma No. N-9876)
p-Nitrophenyl caproate (Sigma No. N-0502)
Results: We will do gas runs using p-nitrophenyl caproate and
p-nitrophenyl caprate as substrates. These will be compared to
p-nitrophenyl caproate N-0502
p-nitrophenyl caprate N-0252

For experiment [2] the test system is unchanged. In words: Lipase hydrolysis of p-nitrophenyl acetate under gaseous atmospheres (spectrophotometric, 400 nm). The experiment is classed as biochemical, Rhizonus arrhizus. The settings on record: substrate PNP-Acetate, +25° C. The procedure: FIGS. 1-3 show a typical enzyme assay carried out at 10, 25 and 35 degrees °C. for triacylglycerol lipase catalysts of paranitrophenol acetate hydrolysis.
as §1, §2, §3
Effect of Air, Ne, Ar, Kr, Xe, N2 and O2 on
Lipase L-1754 using p-nitrophenyl acetate
ENZYME: Lipase (Sigma No. L-4384)
Type XI from Rhizonus arrhizus
p-Nitrophenyl acetate (Sigma No. N-8130)
8 DIFFERENT GASEOUS ATMOSPHERES:
3 DIFFERENT TEMPERATURES:
R = 2.0 ml Soln D + 0.5 ml Soln A
fill the cuvettes with 2.0 ml of (p-nitrophenyl
Fill 8 serum vials with 5.0 ml of (lipase
Bubble 10x10cc of the appropriate gas in T1G1 ... 5
Bubble 10xl0cc of the appropriate gas in G1 ... 5
Remove G1 ... 5 serum vials from fridge. Sample soln

Consider `[Kr]` [Kr, krypton], for which the “Maximum inhibition of lipase activity, PNP-Butyrate” value in experiment [1] is -25%. Moreover, in experiment [2], the “Maximum enhancement of lipase activity, PNP-Acetate” value is reported as “+11%”.

With `[Ar]` [Ar, argon], the “Maximum enhancement of lipase activity, PNP-Caprate” value in experiment [1] (substrate PNP-Caprate, 35° C.) is “+14%”. For the same compound, the “Maximum enhancement of lipase activity, PNP-Caproate” value in experiment [1] (25° C.) was “+37%”.

Take `[Xe]` [Xe, xenon]: the “Maximum inhibition of lipase activity, PNP-Butyrate” value in experiment [1] is 26%. Besides, in experiment [1] (+35 degrees), the “Maximum enhancement of lipase activity, PNP-Caproate” value was “+23%”.
